Test results published in patent publication US9856273B2, “ETP derivatives” (priority 2012, dated 2018).
“Also recorded” adds a separate entry of the source.

Legend:
[1] = system: HepG2 hepatocellular carcinoma cells; test: MTS cell viability assay; type: cell-based; conditions: Homo sapiens
[2] = system: p21WAF1 cyclin-dependent kinase inhibitor 1; test: Western blot, induction of p21WAF1; type: cell-based, human; conditions: A2058, DU145, A549 and SKOV3 cells
Description: (§1) Induction of p16, p53, p21waf1 and p27 (FIGS. 8 and 9): Western blot analyses were performed with specific antibodies. Briefly, human A2058 melanoma, DU145 prostate, A549 non-small lung and SKOV3 ovarian cancer cells were treated with ETP69. Whole-cell lysates (40 […]g) were resolved by SDS-PAGE. Primary specific antibodies to p53, p21^WAF1, p27(Kip1), p16 and Actin were diluted in PBS (pH 7.5) with 5% (w/v) nonfat milk and 0.1% (v/v) Tween-20 over night at 4° C. Horseradish peroxidase-conjugated secondary antibodies were incubated in PBS (pH 7.5) with 5% (w/v) nonfat milk and 0.1% (v/v) Tween-20 for 1 h at room temperature. Positive immuno-reactive proteins were detected using the ECL system (Pierce, Rockford, Ill.).

H3K9 trimethylation = test: Western blot of histone H3 (trimethyl K9) in A2058 melanoma cells; type: cell-based, human
Description: as §1, with “Western” for “Induction of p16, p53, p21waf1 and p27 (FIGS. 8 and 9): Western”, “[…]g) or histone extracts (10 […]g)” for “[…]g)”, “histone H3” for “p53, p21^WAF1, p27(Kip1), p16”, “histone H3 (trimethyl K9) were incubated in PBS (pH 7.5) with 0.1% (v/v) Tween-20 and 5% (w/v) BSA with gentle agitation overnight at 4° C. Other specific antibodies” for “Actin”

G9a = G9a (Homo sapiens, UniProt Q96KQ7); test: Histone methyltransferase (HMT) assay in vitro; type: biochemical
Description: (§2) For histone methyltranferase (HMT), DNA methyltransferase (DNMT) and Histone acetyltransferase (HAT) assays in vitro, human recombinant HMT, DNMT and HAT proteins were mixed with substrates in the reaction buffer (50 mM Tris-HCl (pH 8.5), 5 mM MgCl2, 50 mM NaCl, 1 mM DTT, 1 mM PMSF, 1% DMSO), including histone H3, histone H4, nucleosomes, or core histone. Racemic ETP69, S enantiomer or DMSO as a vehicle control was preincubated in the mixture. Next, for HMTs and DNMT assays, […] of ^3H-SAM was added to the mixture for the reaction initiation and conversion of ^3H-SAM+histone L-lysine to SAH+histone N^6-[methyl-^3H]-L-lysine was monitored with miniatured radioligand-filter binding platform. For p300 HAT assays, the conversion of acetyl-^3H-acetyl coenzyme A to coenzyme A was monitored. The reactions were carried out at 30° C. IC50 values were determined using Excel and GraphPad Prism software.

SUV39H1 = SUV39H1 (Homo sapiens, UniProt O43463); test: Histone methyltransferase (HMT) assay in vitro; type: biochemical
Description: as §2

[3] = system: MDA-MB-231 triple negative breast cancer cells; test: Cell viability assay; type: cell-based
[4] = system: SKOV3 ovarian cancer cells; test: Annexin V-FITC apoptosis assay; type: cell-based, human; conditions: 48 h
Description: Apoptosis Determinations (FIG. 11): Apoptosis assays of human SKOV3 ovarian cancer cells based on […] were carried out using Annexin V-FITC. Briefly, cells were seeded in 6-well plates, incubated overnight at 37° C. in 5% (v/v) CO2 and exposed to ETP69 in a dose-dependent manner for 48 h. DMSO was used as the vehicle control. Cells were analyzed using a FACScan flow cytometer to quantify fluorescence. Apoptotic cells were defined as Annexin V-FITC positive. Each experiment was performed in quadruplicate.

[5] = system: transferases (HMT, HAT, DNMT); test: Screen against a number of transferases; type: biochemical, human
Description: as §2

SKOV3 xenografts = type: in vivo, mouse; conditions: SKOV3 xenograft, 2.5 mg/kg IP once daily for 18 days
Description: Human SKOV3 cancer cells (4×10^6) were resuspended in serum-free McCoy's medium and Matrigel (ration of 1:1) and subcutaneously injected into the flank of 5-6 weeks old female NOD/SCID/IL-2rg(ko)(NSG). When palpable tumor sizes reached at approximately 50 mm^3, mice were divided into two groups (vehicle=9, treatment=9). Then, ETP69 was administered with IP injection at 2.5 mg/kg with vehicle (5% DMSO+15% Solutol+80% H2O), once daily for 18 days. Tumor volumes were calculated by the formula 1/2a×b^2, where a is the long diameter, and b is the short diameter. Tumor volumes correlate with tumor weights. The statistical significance of group differences was analyzed using a Student's t-test with the two-tailed distribution. P values less than 0.05 were considered statistically significant.

[6] = system: HCC1937 triple negative breast cancer cells; test: Cell viability assay; type: cell-based
p16 tumor suppressor = test: Western blot, induction of p16; type: cell-based, human; conditions: DU145 prostate cancer cells and A2058 melanoma cells
Description: as §1

Sequence of SUV39H1 (O43463 whole entry): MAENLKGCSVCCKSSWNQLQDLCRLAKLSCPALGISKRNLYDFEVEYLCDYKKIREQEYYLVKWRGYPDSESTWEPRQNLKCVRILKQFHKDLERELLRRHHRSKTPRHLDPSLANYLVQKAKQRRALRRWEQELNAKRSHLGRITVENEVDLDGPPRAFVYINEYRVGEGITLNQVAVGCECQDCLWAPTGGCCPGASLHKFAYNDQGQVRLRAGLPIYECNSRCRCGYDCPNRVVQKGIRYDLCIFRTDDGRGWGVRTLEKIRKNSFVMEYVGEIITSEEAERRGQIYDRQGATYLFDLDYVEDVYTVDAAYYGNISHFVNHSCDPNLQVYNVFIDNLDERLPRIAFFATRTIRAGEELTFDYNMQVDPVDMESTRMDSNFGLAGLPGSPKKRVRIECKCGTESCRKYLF
Sequence of G9a (Q96KQ7 whole entry): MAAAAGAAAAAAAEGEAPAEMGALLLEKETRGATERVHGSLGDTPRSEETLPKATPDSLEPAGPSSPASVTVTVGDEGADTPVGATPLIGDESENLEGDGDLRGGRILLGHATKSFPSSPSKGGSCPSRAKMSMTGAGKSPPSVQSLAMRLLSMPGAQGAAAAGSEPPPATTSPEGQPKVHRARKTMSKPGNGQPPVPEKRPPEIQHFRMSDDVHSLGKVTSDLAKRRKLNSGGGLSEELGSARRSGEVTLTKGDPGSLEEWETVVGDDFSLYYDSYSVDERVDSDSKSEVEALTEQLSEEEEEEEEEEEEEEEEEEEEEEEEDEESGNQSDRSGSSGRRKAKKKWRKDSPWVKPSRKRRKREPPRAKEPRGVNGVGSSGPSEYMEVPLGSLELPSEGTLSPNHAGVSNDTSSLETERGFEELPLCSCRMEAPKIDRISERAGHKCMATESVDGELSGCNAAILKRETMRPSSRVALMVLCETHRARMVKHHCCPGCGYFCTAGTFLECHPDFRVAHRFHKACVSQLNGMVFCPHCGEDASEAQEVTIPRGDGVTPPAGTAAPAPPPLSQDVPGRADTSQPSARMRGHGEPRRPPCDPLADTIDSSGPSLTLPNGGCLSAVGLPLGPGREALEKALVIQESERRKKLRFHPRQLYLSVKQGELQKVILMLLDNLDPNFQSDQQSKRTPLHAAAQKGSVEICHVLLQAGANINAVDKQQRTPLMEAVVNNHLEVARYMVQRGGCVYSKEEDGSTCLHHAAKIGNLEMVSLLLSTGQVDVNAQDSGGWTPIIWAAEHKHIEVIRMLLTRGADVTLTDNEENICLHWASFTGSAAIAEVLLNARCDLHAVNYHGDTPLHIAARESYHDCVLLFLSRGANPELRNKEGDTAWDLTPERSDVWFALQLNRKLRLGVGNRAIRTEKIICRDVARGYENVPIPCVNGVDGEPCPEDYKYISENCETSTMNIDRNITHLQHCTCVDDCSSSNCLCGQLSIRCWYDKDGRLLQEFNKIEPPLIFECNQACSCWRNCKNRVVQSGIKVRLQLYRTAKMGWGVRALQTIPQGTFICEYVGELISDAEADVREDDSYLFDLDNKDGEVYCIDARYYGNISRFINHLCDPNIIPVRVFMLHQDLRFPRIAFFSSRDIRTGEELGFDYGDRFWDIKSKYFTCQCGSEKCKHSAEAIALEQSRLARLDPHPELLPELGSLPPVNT

CN1C(=O)[C@@]23C[C@](C)(C#N)[C@H](c4ccc5c(c4)OCO5)N2C(=O)[C@]1(C)SS3 (racemic) [ETP69, Rac-(3S,6S,7S,8aS)-6-(Benzo[d][1,3]dioxol-5-yl)-2,3,7-trimethyl-1,4-dioxohexahydro-6H-3,8a-epidithiopyrrolo[1,2-a]pyrazine-7-carbonitrile]
IC50 [1]: 13.8 nM | induction of p21WAF1 [2]: induces | inhibition of H3K9 trimethylation (H3K9 trimethylation): inhibition | inhibition of HMT G9a (G9a): selectively inhibits; also recorded: specific inhibition | inhibition of HMT SUV39H1 (SUV39H1): selectively inhibits; also recorded: specific inhibition | viability inhibition [3]: viability inhibition | apoptosis [4]: induces apoptosis | potency against several transferases compared with chaetocin [5]: about ten times more potency | selectivity for histone methyltransferases (SUV39H1; G9a) over histone acetylases (p300) and DNA methyl transferases (DNMT1) [5]: selective | toxicity symptoms (SKOV3 xenografts): no observable toxicity symptoms | tumor volume (SKOV3 xenografts): decreased | tumor weight (SKOV3 xenografts): decreased | viability inhibition [6]: viability inhibition | induction of p16 tumor suppressor (p16 tumor suppressor): induces
